Measured values as given in PubChem BioAssay (NCI).
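Tested at 5 concentrations; 48 h exposure; 96-well plates; endpoints linearly interpolated, else capped at highest concentration. TGI marks complete inhibition of growth.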 Where a SMILES comes first, the peptide text is derived from it. [ ]: non-standard residue; d: D form. The star is where a group is joined. Phe(4-NO2) = N[CH](Cc1ccc([N+](=O)[O-])cc1)C(=O)O; Cbz = O=C(OCc1ccccc1)*

Legend:
Test in all cases: inhibition of tumour cell growth, NCI panel, 48 h
[1] = tested on: A498 renal
[2] = tested on: COLO 205 colon
[3] = tested on: HS 578T breast
[4] = tested on: MALME-3M melanoma
[5] = tested on: MOLT-4 leukemia
[6] = tested on: NCI-H226 lung
[7] = tested on: NCI-H23 lung
[8] = tested on: OVCAR-5 ovarian
[9] = tested on: RXF 393 renal
[10] = tested on: SF-268 CNS
[11] = tested on: SF-539 CNS
[12] = tested on: SK-OV-3 ovarian
[13] = tested on: TK-10 renal
[14] = tested on: UACC-62 melanoma

| SMILES | TGI [1] [µM] | TGI [2] [µM] | TGI [3] [µM] | TGI [4] [µM] | TGI [5] [µM] | TGI [6] [µM] | TGI [7] [µM] | TGI [8] [µM] | TGI [9] [µM] | TGI [10] [µM] | TGI [11] [µM] | TGI [12] [µM] | TGI [13] [µM] | TGI [14] [µM] |
| --- | --- | --- | --- | --- | --- | --- | --- | --- | --- | --- | --- | --- | --- | --- |
| CCOC(=O)CCC(NC(=O)OCc1ccccc1)C(=O)NC(CCC(=O)OCC)C(=O)NC(CCC(=O)OCC)C(=O)NC(CCC(=O)OCC)C(=O)NC(CCC(=O)OCC)C(=O)NC(Cc1ccc([N+](=O)[O-])cc1)C(=O)NC(CCC(=O)OCC)C(=O)NC(CCC(=O)OCC)C(=O)NC(CCC(=O)OCC)C(=O)NC(CCC(=O)OCC)C(=O)NC(CCC(=O)OCC)C(=O)OCC (stereo unspecified) (Cbz-E(OEt)E(OEt)E(OEt)E(OEt)E(OEt)[Phe(4-NO2)]E(OEt)E(OEt)E(OEt)E(OEt)E(OEt)-OEt; configuration not given here) | > 50 | > 50 | > 50 | > 50 | > 50 | > 50 | > 50 | > 50 | > 50 | > 50 | > 50 | > 50 | > 50 | > 50 |
| CC1(c2cccc(C(F)(F)F)c2)CC(c2cccc(C(F)(F)F)c2)=C(C#N)C(=C(C#N)C#N)N1 (stereo unspecified) | 32.7 | 30.8 | 43.2 | 32.4 | 38.5 | 58.6 | 38.2 | 32.8 | 31.4 | 31.1 | 34.9 | 29.6 | 30.8 | 31.3 |
| CCOP(=O)(OCC)/C(C#N)=C/c1cccn1C | > 100 | > 100 | > 100 | > 100 | > 100 | > 100 | > 100 | > 100 | > 100 | > 100 | > 100 | > 100 | > 100 | > 100 |
| C=C(Cl)C(Cl)(CBr)CCCC(C)C (stereo unspecified) | 34 | 34.9 | 26.9 | > 100 | > 100 | > 100 | > 100 | 35.6 | 44.2 | 40.1 | 22.7 | > 100 | 32.4 | > 100 |
| C[C@]12CC/C(=N\OCCN3CCCC3)C=C1CCC1C2CC[C@@]2(C)C1CC[C@]2(C)O (stereo partly specified) | 4.7 | 11.9 | 43.7 | 18.7 | 12.6 | 11.8 | 35.8 | > 100 | 75.5 | 31.9 | 22.9 | 44.5 | 37 | 11.8 |
| CC(=O)O[C@H]1[C@@H](N2CCCCC2)C[C@H]2[C@@H]3CC=C4C[C@@H](N5CCCC5)CC[C@]4(C)[C@H]3CC[C@@]21C | > 100 | > 100 | > 100 | 52.4 | > 100 | > 100 | > 100 | > 100 | > 100 | > 100 | 34.5 | > 100 | > 100 | > 100 |
| CC1CCC2C(C(=O)O[C@H]3C4C=CO[C@@H](OC5OC(CO)C(O)C(O)C5O)C4[C@@]4(CO)O[C@@H]34)=CO[C@@H](OC3OC(CO)C(O)C(O)C3O)C12 (stereo partly specified) | > 10 | > 10 | > 10 | > 10 | > 10 | > 10 | > 10 | > 10 | > 10 | > 10 | > 10 | > 10 | > 10 | > 10 |
| CSCCCNC(=O)c1csc(-c2csc(CCNC(=O)CNC(=O)OC(C)(C)C)n2)n1 | > 100 | > 100 | > 100 | > 100 | > 100 | > 100 | > 100 | > 100 | > 100 | > 100 | > 100 | > 100 | > 100 | > 100 |
| CCOc1ccc(NC(=O)/C=C/c2ccco2)cc1 | > 100 | > 100 | > 100 | > 100 | > 100 | > 100 | > 100 | > 100 | > 100 | > 100 | > 100 | > 100 | > 100 | > 100 |
| CCC(=O)NC(NNS(=O)(=O)c1ccc(C)cc1)(C(F)(F)F)C(F)(F)F | > 100 | > 100 | > 100 | > 100 | > 100 | > 100 | > 100 | > 100 | 82.9 | > 100 | > 100 | > 100 | > 100 | > 100 |
| O=C(N/N=C\c1ccc([N+](=O)[O-])cc1)Nc1ccc2ccccc2c1 | 56.8 | 71.3 | 70.6 | 51.7 | > 100 | > 100 | > 100 | > 100 | > 100 | > 100 | 47.6 | 89.1 | 91.3 | > 100 |
| Cc1cc(NS(=O)(=O)c2ccc(NC(=O)c3ccc4nc5ccccc5c(Nc5ccc(S(N)(=O)=O)cc5)c4c3)cc2)no1 | > 100 | 43.8 | 86.8 | 61.8 | 61.8 | > 100 | 95.2 | 65.8 | 58.4 | > 100 | 80.9 | > 100 | 82.9 | 67.7 |
| ON[C@@H]1C=C[C@H](n2cnc3c(NC4CC4)ncnc32)C1 | > 100 | > 100 | > 100 | > 100 | > 100 | > 100 | > 100 | > 100 | > 100 | > 100 | > 100 | > 100 | > 100 | > 100 |
| O=C1NCC2(CCN(CC3COc4ccccc4O3)CC2)N1c1ccccc1 (stereo unspecified) | > 100 | > 100 | > 100 | > 100 | > 100 | > 100 | > 100 | > 100 | > 100 | > 100 | > 100 | > 100 | > 100 | > 100 |
| Cc1ccc2c(n1)C(=O)c1cc(C)c(C)cc1C2=O | > 100 | > 100 | > 100 | > 100 | > 100 | > 100 | > 100 | > 100 | > 100 | > 100 | > 100 | > 100 | > 100 | > 100 |
| CCOC(=O)c1sc2c(c1OC(=O)c1ccco1)c(=O)n(-c1ccccc1)c(=S)n2-c1ccccc1 | 60.4 | 38.1 | > 100 | 60.6 | 49.3 | 87.2 | > 100 | > 100 | 62 | > 100 | 97.9 | > 100 | > 100 | 84.3 |
| c1ccc([P+](Cc2ccc(C[P+](c3ccccc3)(c3ccccc3)c3ccccc3)s2)(c2ccccc2)c2ccccc2)cc1 | > 100 | > 100 | > 100 | > 100 | > 100 | > 100 | > 100 | > 100 | > 100 | > 100 | > 100 | > 100 | > 100 | > 100 |
| CCc1cn(C2CC(CO)C(CO)S2)c(=O)[nH]c1=O (stereo unspecified) | > 100 | > 100 | > 100 | > 100 | > 100 | > 100 | > 100 | > 100 | > 100 | > 100 | > 100 | > 100 | > 100 | > 100 |
| NC(N)=NS(=O)(=O)c1ccc(NCc2cccc3c(=O)c4ccc(Cl)cc4oc23)cc1 | > 15.3 | > 20.3 | 13.9 | > 19.2 | > 20.1 | > 25 | > 21.8 | > 18.9 | 7.17 | 12.7 | > 13.1 | > 17.3 | > 14.5 | > 24.1 |
